Test results: patent US20040002441A1, “Recombination modulators and methods for producing and using the same” (priority 2000, published 2004)
Where no end group is shown, it is not given here.

How the values were obtained:
Type in all cases: biochemical
[1] = target: T1, bacteriophage λ Integrase (Int) (Escherichia phage lambda, UniProt P03700); assay: Formation of covalent protein-DNA complexes (CPDs) by Int
T1 sequence (P03700 1-356): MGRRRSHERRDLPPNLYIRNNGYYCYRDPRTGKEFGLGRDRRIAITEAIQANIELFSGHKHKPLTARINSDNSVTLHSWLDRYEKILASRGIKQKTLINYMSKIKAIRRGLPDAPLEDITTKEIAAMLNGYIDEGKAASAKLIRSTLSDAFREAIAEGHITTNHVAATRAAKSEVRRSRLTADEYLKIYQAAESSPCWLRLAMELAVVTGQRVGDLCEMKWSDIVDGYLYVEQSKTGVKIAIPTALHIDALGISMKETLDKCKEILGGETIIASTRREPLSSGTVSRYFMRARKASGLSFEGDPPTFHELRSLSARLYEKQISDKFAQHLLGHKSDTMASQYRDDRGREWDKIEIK
Source text: Int, like its relative tyrosine recombinases, makes transient covalent protein-DNA complexes (CPDs) during the cleavage stage of the recombination reaction. […] Since these complexes are the product of DNA cleavage by Int prior to strand exchange or ligation, we tested the effect of peptide KWWCRW on their formation. The peptide inhibited accumulation of both attL and attR CPDs by 65-75% (data not shown), supporting our model that KWWCRW blocks recombination by interfering with the cleavage step of the reaction.

[2] = target: T2, bacteriophage λ Integrase (Int) (Escherichia phage lambda, UniProt P03700); assay: Resolution of isolated excision Holliday junctions by Int, IHF and Xis; details: peptide 100 μM
Description: (§1) FIG. 18 depicts effect of peptide WKHYNY on DNA cleavage. A. Time course of resolution of excision HJs. HJs were isolated, and Int, IHF, and Xis were added in the presence or absence of peptide 52 (100 μM) and stopped at various timepoints (1, 5, 15, 30, 60, and 90 min). Absence of peptide, closed circles; presence of peptide, open squares. B. The extent of strand cleavage of attL. An attL site containing a phosphorothiolate modification at the point of top strand cleavage (attLS) was incubated with Int, IHF, and Xis, in the presence of attR and in the presence or absence of peptide WKHYNY. Absence of peptide, open squares; presence of peptides, closed diamonds.
Holliday junctions can be resolved either in the “forward” direction to form recombinant products or in the “reverse” direction to re-form substrates. Synthetic HJs representing intermediates in the unidirectional reactions are preferentially resolved in the direction of products (Hsu and Landy, 1984; Franz and Landy, 1990, 1995). We wanted to determine whether HJs isolated in the presence of peptide behave similarly to the synthetic HJs. In addition, we wanted to analyze the processing of bent-L HJs. Recombination reactions were assembled in the presence of peptide WKHYNY, and protein-free HJs were isolated from SDS-containing gels, eluted, and precipitated. […]
T2 sequence (P0A6X7 whole entry partner, one chain of several): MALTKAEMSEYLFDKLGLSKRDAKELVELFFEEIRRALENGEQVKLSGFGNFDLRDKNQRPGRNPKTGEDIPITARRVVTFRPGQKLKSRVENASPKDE
T2 sequence (P0A6Y1 whole entry partner, one chain of several): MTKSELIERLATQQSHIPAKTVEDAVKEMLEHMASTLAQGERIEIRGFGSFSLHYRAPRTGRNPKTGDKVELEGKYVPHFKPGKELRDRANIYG
T2 sequence (P03699 whole entry partner, one chain of several): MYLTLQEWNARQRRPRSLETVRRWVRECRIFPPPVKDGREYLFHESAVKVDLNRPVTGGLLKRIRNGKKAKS

[3] = target: T2, bacteriophage λ Integrase (Int); assay: Top strand cleavage of phosphorothiolate-modified attL (attLS); details: with Int, IHF, Xis and attR
Description: as §1
In contrast, the peptide has little or no effect on the, rate of cleavage of the attL early intermediate under recombination conditions (FIG. 18B). We measured this by using attL substrates containing a bridging phosphorothiolate modification at the locus of top strand cleavage. This modification, developed by Burgin and Nash (1995), replaces a bridging oxygen atom in the DNA backbone with a sulfur atom. Upon cleavage, the covalent Int-DNA intermediate remains trapped because the sulfhydryl generated at the free 5′ end is a much poorer nucleophile of the phosphotyrosyl bond than the normal hydroxyl group (Burgin et al., 1995). […]

Substance | inhibition of accumulation of attL and attR CPDs [1] | effect on rate of resolution of gel-isolated excision HJs [2] | effect on first strand cleavage of attLS [3]
KWWCRW-NH2 [Peptide 59, KWWCRW] | 65-75% |  | 
WKHYNY-NH2 [Peptide 52, WKHYNY] |  | slowed the rate of cleavage | no influence on the kinetics or the amount of cleavage
